In PMC3447535 (Neuropharmacology, 2012):
Values belong to the compound of their own block, whether it stands above or below them.

Key:
[1] = system: Egr1-EGFP reporter gene in primary cultured cortical neurons; assay: Egr1 reporter gene assay; assay type: cell-based, mouse; details: 24 hour treatments
Grn (granulin) = details: ref Cenik et al., 2011; cited from earlier work
[2] = system: acetylated histone H3, H4, H2A, H2B in cultured primary mouse neurons; assay: Western blotting of neuronal histone acetylation; assay type: cell-based; details: 1 μM, 24 hrs
[3] = Crebinostat concentration in brain and plasma; assay type: in vivo, mouse; details: single IP dose 25 mg/kg
C57BL/6J mice = assay: Open field locomotion prior to footshock; assay type: in vivo, mouse; details: 25 mg/kg IP daily, 10 days
[4] = system: hippocampal acetylation of H4K12 and H3K9; assay: Western blot of hippocampal histone acetylation after IP injection; assay type: in vivo, mouse; details: one hour after IP injection
[5] = system: 6X-CRE-β-galactosidase CREB reporter gene in PC12 cells; assay: CREB reporter gene assay; assay type: cell-based; details: for effect on forskolin induction of the CREB reporter gene: in the presence of forskolin (10 μM), 4 hr, library compounds 20 μM
[6] = system: mouse forebrain primary cultured neurons; assay: Transcriptome profiling; assay type: cell-based; details: 1 μM, 24 hrs
[7] = system: mouse forebrain primary cultured neurons; assay: Quantitative RT-PCR assays of gene expression; assay type: cell-based; details: 1 μM
[8] = system: Homer1 expression in cortical neurons; assay: NanoString nCounter gene expression assay; assay type: cell-based, mouse; details: crebinostat 1 μM 24 hours, BDNF 20 ng/ml last 6 hours
[9] = system: mouse primary forebrain cultures; assay: Synapsin I punctae imaging along Map2-positive dendrites; assay type: cell-based; details: 1 μM, 24 hr
[10] = system: mouse primary forebrain cultures; assay: Toxicity in primary neuronal cultures on coverslips; assay type: cell-based; details: 1 μM, 24 hrs
[11] = system: AcH4K12 in mouse primary forebrain cultures; assay: High resolution neuronal histone acetylation imaging; assay type: cell-based; details: 1 μM, 24 hrs
recombinant HDAC1 [12] = biological target: T1, recombinant HDAC1 (Homo sapiens, UniProt Q13547); details: more potent than SAHA
recombinant HDAC1 [13] = biological target: T1, recombinant HDAC1; assay: biochemical
recombinant HDAC2 = recombinant HDAC2 (Homo sapiens, UniProt Q92769); assay: In vitro HDAC enzymatic assay, HDAC2
recombinant HDAC3 = recombinant HDAC3 (Homo sapiens, UniProt O15379); assay: In vitro HDAC enzymatic assay, HDAC3
recombinant HDAC4 = recombinant HDAC4 (Homo sapiens, UniProt P56524); assay: In vitro HDAC enzymatic assay, HDAC4; details: read-out: IC50 for inhibition of enzymatic activity of HDAC4; Class IIa
recombinant HDAC5 = recombinant HDAC5 (Homo sapiens, UniProt Q9UQL6); assay: In vitro HDAC enzymatic assay, HDAC5; details: read-out: IC50 for inhibition of enzymatic activity of HDAC5; Class IIa
recombinant HDAC7 = biological target: T2, recombinant HDAC7 (Homo sapiens, UniProt Q8WUI4); assay: In vitro HDAC enzymatic assay, HDAC7; details: read-out: IC50 for inhibition of enzymatic activity of HDAC7; Class IIa
T2 sequence (Q8WUI4 1-952): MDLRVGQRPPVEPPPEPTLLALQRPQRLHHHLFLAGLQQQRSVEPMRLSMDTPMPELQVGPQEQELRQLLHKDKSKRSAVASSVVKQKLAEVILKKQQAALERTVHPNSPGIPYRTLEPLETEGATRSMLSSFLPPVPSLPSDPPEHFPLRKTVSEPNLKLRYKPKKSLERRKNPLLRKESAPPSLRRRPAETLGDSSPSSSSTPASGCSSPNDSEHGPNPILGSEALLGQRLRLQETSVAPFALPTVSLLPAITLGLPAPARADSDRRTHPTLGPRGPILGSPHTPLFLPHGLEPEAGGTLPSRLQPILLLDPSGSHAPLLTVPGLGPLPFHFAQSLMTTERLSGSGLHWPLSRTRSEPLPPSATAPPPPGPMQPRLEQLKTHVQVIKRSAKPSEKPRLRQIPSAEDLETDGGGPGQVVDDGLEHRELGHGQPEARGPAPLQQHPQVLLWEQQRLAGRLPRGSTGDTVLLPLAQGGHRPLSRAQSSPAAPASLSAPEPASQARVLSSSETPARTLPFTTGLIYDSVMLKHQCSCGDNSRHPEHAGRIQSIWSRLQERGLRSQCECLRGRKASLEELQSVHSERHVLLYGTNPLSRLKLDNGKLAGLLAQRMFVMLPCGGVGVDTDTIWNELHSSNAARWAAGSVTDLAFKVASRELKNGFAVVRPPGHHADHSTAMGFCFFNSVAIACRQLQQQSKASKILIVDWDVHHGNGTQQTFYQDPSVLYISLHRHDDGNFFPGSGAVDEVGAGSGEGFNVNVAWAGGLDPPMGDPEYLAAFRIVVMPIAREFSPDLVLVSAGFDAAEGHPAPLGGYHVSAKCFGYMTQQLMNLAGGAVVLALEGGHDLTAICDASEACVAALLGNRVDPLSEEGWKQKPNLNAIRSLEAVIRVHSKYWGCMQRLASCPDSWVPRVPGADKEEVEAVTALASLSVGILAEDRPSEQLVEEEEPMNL

recombinant HDAC9 = recombinant HDAC9 (Homo sapiens, UniProt Q9UKV0); assay: In vitro HDAC enzymatic assay, HDAC9; details: read-out: IC50 for inhibition of enzymatic activity of HDAC9; Class IIa
recombinant HDAC6 = biological target: T3, recombinant HDAC6 (Homo sapiens, UniProt Q9UBN7); assay: In vitro HDAC enzymatic assay, HDAC6
T3 sequence (Q9UBN7 1-1215): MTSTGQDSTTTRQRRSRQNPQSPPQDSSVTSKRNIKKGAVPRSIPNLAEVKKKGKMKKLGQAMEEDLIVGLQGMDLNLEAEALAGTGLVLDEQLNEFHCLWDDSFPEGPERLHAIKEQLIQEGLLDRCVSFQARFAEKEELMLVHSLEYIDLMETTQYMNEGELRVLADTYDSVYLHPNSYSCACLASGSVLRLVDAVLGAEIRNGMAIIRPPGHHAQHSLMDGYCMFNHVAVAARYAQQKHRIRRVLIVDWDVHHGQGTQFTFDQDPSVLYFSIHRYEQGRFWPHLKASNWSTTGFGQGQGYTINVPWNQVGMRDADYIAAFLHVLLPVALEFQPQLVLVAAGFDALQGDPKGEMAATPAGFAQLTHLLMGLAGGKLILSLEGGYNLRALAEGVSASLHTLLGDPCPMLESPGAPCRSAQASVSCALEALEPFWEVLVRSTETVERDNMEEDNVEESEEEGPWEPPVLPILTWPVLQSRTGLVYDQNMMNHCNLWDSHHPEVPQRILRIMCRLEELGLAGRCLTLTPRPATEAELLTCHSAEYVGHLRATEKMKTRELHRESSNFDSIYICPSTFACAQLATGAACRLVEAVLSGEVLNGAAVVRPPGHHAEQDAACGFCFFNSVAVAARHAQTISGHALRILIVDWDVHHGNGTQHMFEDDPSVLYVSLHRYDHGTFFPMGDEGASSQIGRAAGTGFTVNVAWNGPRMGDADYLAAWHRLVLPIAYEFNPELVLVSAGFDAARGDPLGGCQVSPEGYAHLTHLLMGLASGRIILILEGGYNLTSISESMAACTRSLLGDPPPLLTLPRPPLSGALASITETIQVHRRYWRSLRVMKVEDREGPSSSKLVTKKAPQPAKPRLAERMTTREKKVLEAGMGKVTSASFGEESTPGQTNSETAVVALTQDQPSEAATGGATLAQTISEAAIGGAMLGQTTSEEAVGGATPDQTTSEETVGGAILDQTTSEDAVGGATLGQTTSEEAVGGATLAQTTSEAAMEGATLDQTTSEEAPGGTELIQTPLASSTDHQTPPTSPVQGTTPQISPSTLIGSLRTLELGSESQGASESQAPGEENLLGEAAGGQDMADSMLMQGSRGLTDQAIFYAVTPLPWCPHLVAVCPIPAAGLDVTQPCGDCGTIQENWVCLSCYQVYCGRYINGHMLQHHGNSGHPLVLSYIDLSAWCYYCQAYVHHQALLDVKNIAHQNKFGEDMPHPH

[14] = system: AcH4K12 in mouse primary cultured forebrain neurons; assay: Neuronal histone acetylation immunofluorescence assay, AcH4K12; details: AcH4K12 and AcH3K9; more potent than SAHA

T1 sequence (Q13547 whole entry): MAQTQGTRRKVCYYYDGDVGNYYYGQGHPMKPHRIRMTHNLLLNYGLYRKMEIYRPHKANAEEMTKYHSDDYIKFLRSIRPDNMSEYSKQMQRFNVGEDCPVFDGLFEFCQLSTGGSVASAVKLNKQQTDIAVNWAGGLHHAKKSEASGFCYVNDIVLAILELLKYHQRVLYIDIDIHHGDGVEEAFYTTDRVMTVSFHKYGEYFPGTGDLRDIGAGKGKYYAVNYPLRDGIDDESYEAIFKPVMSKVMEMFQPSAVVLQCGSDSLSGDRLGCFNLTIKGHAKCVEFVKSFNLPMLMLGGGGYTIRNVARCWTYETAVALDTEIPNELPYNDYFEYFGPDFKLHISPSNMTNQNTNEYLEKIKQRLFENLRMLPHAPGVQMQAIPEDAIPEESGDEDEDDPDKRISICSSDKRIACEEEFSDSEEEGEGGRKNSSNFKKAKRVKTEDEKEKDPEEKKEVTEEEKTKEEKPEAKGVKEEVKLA
Chain of recombinant HDAC9 (Q9UKV0 whole entry): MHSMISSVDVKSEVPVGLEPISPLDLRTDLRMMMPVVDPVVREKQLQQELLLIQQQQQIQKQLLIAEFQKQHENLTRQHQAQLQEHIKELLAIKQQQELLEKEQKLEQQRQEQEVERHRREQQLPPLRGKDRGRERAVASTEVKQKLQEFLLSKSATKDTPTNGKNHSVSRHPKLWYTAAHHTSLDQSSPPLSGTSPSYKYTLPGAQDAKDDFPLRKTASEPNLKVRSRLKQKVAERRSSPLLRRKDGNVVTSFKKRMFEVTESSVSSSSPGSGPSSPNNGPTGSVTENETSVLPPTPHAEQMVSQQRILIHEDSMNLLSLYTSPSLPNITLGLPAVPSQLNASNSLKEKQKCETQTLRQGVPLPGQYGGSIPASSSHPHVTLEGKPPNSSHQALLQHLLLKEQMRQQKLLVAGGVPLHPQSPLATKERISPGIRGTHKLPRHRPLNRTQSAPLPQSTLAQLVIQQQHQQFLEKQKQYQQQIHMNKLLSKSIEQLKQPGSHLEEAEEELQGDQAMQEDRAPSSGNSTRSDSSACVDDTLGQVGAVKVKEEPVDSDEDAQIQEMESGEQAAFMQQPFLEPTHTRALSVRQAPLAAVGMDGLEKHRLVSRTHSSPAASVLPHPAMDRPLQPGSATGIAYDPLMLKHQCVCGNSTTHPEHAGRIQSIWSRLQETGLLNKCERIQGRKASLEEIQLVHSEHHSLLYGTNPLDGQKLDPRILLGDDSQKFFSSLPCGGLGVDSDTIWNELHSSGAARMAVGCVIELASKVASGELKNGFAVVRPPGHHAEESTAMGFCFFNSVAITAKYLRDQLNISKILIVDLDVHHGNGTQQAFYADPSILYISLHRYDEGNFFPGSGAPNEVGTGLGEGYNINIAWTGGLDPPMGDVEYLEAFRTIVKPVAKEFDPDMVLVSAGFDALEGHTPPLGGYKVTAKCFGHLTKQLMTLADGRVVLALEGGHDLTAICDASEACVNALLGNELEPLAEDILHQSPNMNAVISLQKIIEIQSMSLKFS
Chain of recombinant HDAC2 (Q92769 whole entry): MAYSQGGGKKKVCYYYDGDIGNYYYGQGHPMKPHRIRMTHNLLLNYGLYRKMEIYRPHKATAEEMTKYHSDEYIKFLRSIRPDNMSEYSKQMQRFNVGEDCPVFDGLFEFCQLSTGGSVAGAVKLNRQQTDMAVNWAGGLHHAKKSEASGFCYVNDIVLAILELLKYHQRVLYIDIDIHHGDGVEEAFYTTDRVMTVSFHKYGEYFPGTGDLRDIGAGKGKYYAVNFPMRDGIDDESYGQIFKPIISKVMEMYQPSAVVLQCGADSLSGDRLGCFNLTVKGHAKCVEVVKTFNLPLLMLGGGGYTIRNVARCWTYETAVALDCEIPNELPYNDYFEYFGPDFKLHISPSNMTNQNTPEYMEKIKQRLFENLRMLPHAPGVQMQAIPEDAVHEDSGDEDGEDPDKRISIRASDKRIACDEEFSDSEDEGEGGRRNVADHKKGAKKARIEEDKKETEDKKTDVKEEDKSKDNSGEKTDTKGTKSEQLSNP
Chain of recombinant HDAC5 (Q9UQL6 whole entry): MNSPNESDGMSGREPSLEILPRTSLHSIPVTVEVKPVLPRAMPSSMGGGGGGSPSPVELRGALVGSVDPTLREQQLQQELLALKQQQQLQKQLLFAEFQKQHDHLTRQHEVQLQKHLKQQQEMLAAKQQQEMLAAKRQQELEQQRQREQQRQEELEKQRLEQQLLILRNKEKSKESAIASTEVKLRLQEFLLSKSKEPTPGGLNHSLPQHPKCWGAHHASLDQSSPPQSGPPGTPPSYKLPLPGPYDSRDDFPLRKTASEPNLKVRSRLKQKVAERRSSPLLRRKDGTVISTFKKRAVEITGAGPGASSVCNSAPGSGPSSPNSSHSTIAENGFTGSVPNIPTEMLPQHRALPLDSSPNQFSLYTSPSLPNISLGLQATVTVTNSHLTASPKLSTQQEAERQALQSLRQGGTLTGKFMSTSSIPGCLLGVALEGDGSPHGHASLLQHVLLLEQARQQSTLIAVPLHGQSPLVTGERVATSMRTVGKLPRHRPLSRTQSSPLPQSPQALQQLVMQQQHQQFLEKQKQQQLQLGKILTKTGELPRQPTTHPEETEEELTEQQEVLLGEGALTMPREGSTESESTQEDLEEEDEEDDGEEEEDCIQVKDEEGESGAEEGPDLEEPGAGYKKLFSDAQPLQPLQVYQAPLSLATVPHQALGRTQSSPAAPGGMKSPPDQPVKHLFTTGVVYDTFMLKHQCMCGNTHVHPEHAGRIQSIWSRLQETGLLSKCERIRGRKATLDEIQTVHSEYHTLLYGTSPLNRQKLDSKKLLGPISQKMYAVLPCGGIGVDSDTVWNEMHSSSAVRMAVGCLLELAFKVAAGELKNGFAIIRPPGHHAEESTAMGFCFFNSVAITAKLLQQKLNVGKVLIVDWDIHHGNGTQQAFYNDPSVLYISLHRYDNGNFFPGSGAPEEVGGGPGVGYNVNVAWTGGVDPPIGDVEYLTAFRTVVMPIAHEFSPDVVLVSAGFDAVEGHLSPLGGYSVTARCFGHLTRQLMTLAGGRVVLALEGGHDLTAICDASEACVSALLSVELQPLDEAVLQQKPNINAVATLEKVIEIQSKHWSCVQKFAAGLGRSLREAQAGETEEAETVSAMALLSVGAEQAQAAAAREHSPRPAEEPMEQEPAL
Chain of recombinant HDAC4 (P56524 whole entry): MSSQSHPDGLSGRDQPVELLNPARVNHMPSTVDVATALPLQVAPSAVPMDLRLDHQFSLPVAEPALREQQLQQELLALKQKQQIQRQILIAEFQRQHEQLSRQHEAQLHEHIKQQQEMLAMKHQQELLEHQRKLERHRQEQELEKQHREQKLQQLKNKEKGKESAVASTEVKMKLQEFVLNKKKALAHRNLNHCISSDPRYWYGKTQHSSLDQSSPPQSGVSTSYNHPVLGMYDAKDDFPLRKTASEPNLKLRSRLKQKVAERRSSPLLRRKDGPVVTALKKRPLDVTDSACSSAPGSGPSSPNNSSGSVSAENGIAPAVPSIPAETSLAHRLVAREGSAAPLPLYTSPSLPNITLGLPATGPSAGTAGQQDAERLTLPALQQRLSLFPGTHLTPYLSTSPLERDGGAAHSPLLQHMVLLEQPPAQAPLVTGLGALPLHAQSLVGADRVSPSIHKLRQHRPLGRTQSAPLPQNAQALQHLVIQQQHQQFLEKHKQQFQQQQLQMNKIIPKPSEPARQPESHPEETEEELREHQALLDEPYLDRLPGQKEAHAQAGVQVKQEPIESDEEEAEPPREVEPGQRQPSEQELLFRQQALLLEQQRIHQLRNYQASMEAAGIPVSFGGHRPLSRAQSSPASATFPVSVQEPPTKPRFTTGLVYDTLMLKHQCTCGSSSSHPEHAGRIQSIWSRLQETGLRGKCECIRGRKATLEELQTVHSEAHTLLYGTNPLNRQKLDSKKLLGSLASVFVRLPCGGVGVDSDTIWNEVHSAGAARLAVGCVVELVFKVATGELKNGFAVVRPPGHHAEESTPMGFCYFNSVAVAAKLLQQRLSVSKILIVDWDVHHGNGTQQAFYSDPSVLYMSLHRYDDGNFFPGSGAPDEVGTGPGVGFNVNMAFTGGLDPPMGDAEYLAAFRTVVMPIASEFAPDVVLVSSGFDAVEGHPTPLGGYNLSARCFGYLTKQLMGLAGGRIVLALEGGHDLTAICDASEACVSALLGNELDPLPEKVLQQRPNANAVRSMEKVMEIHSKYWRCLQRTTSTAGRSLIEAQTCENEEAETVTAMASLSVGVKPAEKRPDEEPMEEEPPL
Chain of recombinant HDAC3 (O15379 whole entry): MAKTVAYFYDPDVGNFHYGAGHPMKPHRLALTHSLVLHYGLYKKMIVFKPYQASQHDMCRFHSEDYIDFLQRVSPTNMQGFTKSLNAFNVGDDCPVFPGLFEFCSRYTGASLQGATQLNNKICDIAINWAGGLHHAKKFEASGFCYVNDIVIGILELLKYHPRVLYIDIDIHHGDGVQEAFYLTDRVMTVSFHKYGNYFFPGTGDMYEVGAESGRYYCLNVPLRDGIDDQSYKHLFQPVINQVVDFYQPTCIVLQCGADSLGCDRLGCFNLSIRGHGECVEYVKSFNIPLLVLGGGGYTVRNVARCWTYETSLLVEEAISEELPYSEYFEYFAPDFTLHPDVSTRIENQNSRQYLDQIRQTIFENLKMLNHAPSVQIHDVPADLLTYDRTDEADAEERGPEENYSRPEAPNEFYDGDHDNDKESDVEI
Chain of recombinant HDAC3 (Q9Y618 395-489 partner limits assumed): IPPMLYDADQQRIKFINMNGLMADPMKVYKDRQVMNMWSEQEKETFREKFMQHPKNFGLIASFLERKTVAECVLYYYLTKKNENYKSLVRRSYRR

Compound: O=C(CCCCCCC(=O)Nc1ccccc1)NO [SAHA, suberoylanilide hydroxamic acid, reference compound]
Egr1-EGFP reporter gene activity [1]: induced
expression of Grn (granulin) in cell lines (Grn (granulin)): upregulate

half-life ([3]; C57BL/6, mouse, brain, ip, 25 mg/kg, half-life (T1/2), mouse brain): 43.2 min
time of Cmax in brain post-injection ([3]; mouse): 30 min
exploratory activity immediately prior to foot shock versus vehicle (C57BL/6J mice): no significant differences
potency relative to SAHA for inhibition of class I HDACs 1-3 (recombinant HDAC1 [12]): approximately 10 fold
IC50 (recombinant HDAC1 [13]): 0.7 ± 0.04 nM
IC50 (recombinant HDAC2): 1 ± 0.08 nM
IC50 (recombinant HDAC3): 2 ± 0.3 nM
IC50 (recombinant HDAC4): > 2000 nM
IC50 (recombinant HDAC5): > 2000 nM
IC50 (recombinant HDAC7): > 2000 nM
IC50 (recombinant HDAC9): > 2000 nM
IC50 (recombinant HDAC6): 9.3 ± 0.6 nM
Compound: O=C(CCCCCC(=O)NN=Cc1ccc(-c2ccccc2)cc1)NO [crebinostat, 7-(2-([1,1′-biphenyl]-4-ylmethylene)hydrazinyl)-N-hydroxy-7-oxoheptanamide]
acetylation of histone H3, H4, H2A and H2B (western blot) [2]: strong increases
total hippocampal acetylation of H4K12 and H3K9 [4]: not statistically significant
effect on forskolin induction of the CREB reporter gene [5]: strong activation of the reporter only in the presence of forskolin
Egr1-EGFP reporter gene activity [1]: induced
Fold upregulation (Illumina array) Aldh2 [6]: 2.0 fold
Fold upregulation (Illumina array) Sdcbp [6]: 2.2 fold
Grn mRNA expression ([7]; 24 hours): upregulate
Hspa1b (Hsp70) mRNA expression ([7]; 24 hours): upregulated
Mapt mRNA expression ([7]; 24 hours): downregulated
Bdnf mRNA expression ([7]; 24 hours, Bdnf transcript IV): upregulated
Fold upregulation (RT-PCR) Aldh2 ([7]; 24 hrs, normalized to Gapdh): 2.3 fold
Fold upregulation (RT-PCR) Egr1 ([7]; 24 hrs, normalized to Gapdh): 3.9 fold
Fold upregulation (RT-PCR) Pik3c3 ([7]; 24 hrs, normalized to Gapdh): 2.2 fold
Fold upregulation (RT-PCR) Sdcbp ([7]; 24 hrs, normalized to Gapdh): 2.3 fold
regulation of Homer1 expression together with BDNF stimulation [8]: synergistic
increase in dendritic synapsin I punctae density [9]: ~2 fold
synapsin I punctae size or staining intensity [9]: did not alter
total dendrite length per image [9]: did not alter
toxicity in neuronal cultures [10]: no detectable toxicity
histone acetylation (AcH4K12) in cultures on glass coverslips [11]: robust increase
potency relative to SAHA at inducing histone acetylation in neurons [14]: ~ 6 fold

Compound: C=C[C@@]1(C)CC(=O)[C@]2(O)[C@@]3(C)[C@@H](O)CCC(C)(C)[C@@H]3[C@H](O)[C@H](OC(C)=O)[C@@]2(C)O1 [forskolin]
induction of the CREB reporter gene ([5]; 10 μM, 4 hours, PC12 cells): ~ 4 fold

Compound: CC(/C=C/C(=O)NO)=C\[C@@H](C)C(=O)c1ccc(N(C)C)cc1 [trichostatin A]
effect on forskolin induction of the CREB reporter gene [5]: further enhanced
